Data published in PubChem BioAssay (NCI).
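Results reflect a 48-hour exposure of cells in 96-well plates to compound at five concentrations. At the GI50, growth is halved. At the TGI there is no net growth.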

How the values were obtained:
Assay in all cases: NCI anticancer screen, dose series, 48 h
OVCAR-8 ovarian = tested on: OVCAR-8 ovarian
OVCAR-4 ovarian = tested on: OVCAR-4 ovarian
DU-145 prostate = tested on: DU-145 prostate
NCI/ADR-RES ovarian = tested on: NCI/ADR-RES ovarian
OVCAR-3 ovarian = tested on: OVCAR-3 ovarian
SK-MEL-28 melanoma = tested on: SK-MEL-28 melanoma
SK-OV-3 ovarian = tested on: SK-OV-3 ovarian
UACC-62 melanoma = tested on: UACC-62 melanoma
NCI-H23 lung = tested on: NCI-H23 lung
786-0 renal = tested on: 786-0 renal

| Compound | GI50 (OVCAR-8 ovarian) | TGI (OVCAR-8 ovarian) | GI50 (OVCAR-4 ovarian) | TGI (OVCAR-4 ovarian) | GI50 (DU-145 prostate) | TGI (DU-145 prostate) | GI50 (NCI/ADR-RES ovarian) | TGI (NCI/ADR-RES ovarian) | GI50 (OVCAR-3 ovarian) | TGI (OVCAR-3 ovarian) | GI50 (SK-MEL-28 melanoma) | TGI (SK-MEL-28 melanoma) | GI50 (SK-OV-3 ovarian) | TGI (SK-OV-3 ovarian) | GI50 (UACC-62 melanoma) | TGI (UACC-62 melanoma) | GI50 (NCI-H23 lung) | TGI (NCI-H23 lung) | GI50 (786-0 renal) | TGI (786-0 renal) |
| --- | --- | --- | --- | --- | --- | --- | --- | --- | --- | --- | --- | --- | --- | --- | --- | --- | --- | --- | --- | --- |
| CSc1ccc(C2=NN(C(=O)c3ccc(N)cc3)C(c3ccc(F)cc3)C2)cc1 (centres undefined) | 16.1 µM | 32.5 µM | 15 µM | 31.9 µM | 10.6 µM | 24 µM | 16.1 µM | 38.5 µM | 4.54 µM | 17.2 µM | 18.4 µM | 34.7 µM | 16.2 µM | 31.7 µM | 10.1 µM | 22.5 µM | 17.5 µM | 37.9 µM | 13.5 µM | 27.1 µM |
| COc1ccc(NC(=O)O[C@H]2[C@H](O[C@H]3[C@@H](O)COC(O[C@H]4C[C@H]5[C@@H]6CC=C7C[C@@H](O)CC[C@]7(C)[C@H]6CC[C@]5(C)[C@H]4[C@H](C)C(=O)CCC(C)C)[C@@H]3OC(C)=O)OC[C@@H](O)[C@@H]2O)cc1 (some centres undefined) | 7.75 µM | > 100 µM | 0.145 µM | > 100 µM | 0.367 µM | 34.7 µM | 3.78 µM | > 100 µM | 1.11 µM | 31.5 µM | < 0.01 µM | 0.0127 µM | 0.015 µM | 3.71 µM | < 0.01 µM | < 0.01 µM | 0.0284 µM | 5.03 µM | < 0.01 µM | 11.3 µM |
| Cc1c(N2C(=O)/C(=C\c3ccc(N(C)C)cc3)N=C2c2ccccc2)c(=O)n(-c2ccccc2)n1C | 83.9 µM | > 100 µM | 39.9 µM | > 100 µM | 71.3 µM | > 100 µM | 99.5 µM | > 100 µM | > 70.6 µM | > 100 µM | > 100 µM | > 100 µM | > 100 µM | > 100 µM | > 100 µM | > 100 µM | > 92.2 µM | > 100 µM | > 100 µM | > 100 µM |
| COc1cc(C2C(C#N)=C(N)Oc3cc4c(cc32)OCO4)cc2c1OCO2 (centres undefined) | 0.466 µM | > 100 µM | 0.931 µM | > 100 µM | 0.362 µM | > 100 µM | 0.103 µM | 0.553 µM | 0.0928 µM | 0.35 µM | 1.57 µM | > 100 µM | 0.439 µM |  | 0.285 µM | > 100 µM | 0.313 µM | > 100 µM | 0.597 µM | > 90.9 µM |
| C=C=[CH][Sn]([c]1ccccc1)([c]1ccccc1)[c]1ccccc1 | 1.85 µM | 3.68 µM | 1.47 µM | 3.38 µM | 1.14 µM | 2.42 µM | 2.19 µM | 5.94 µM | 1.54 µM | 4.61 µM | 1.71 µM | 3.34 µM | 2.15 µM | 4.73 µM | 1.65 µM | 3.28 µM | 1.58 µM | 3.47 µM | 1.51 µM | 2.92 µM |
| COc1ccc(-n2sc(=O)n(Cc3ccc(COC(=O)C(C)c4ccc(CC(C)C)cc4)cc3)c2=O)cc1 (centres undefined) | 2.81 µM | 21.5 µM | 0.92 µM | 1.99 µM | 1.85 µM | 6.34 µM | 7.5 µM | 20 µM | 0.821 µM | 1.52 µM | 3.02 µM | 9.53 µM | 28 µM | 50 µM | 4.03 µM | 10.5 µM | 5.72 µM | 14.1 µM | 6.13 µM | 12.9 µM |
| COc1ccc(-c2cncn2-c2cc(OC)c(OC)c(OC)c2)cc1F | < 0.0488 µM | > 100 µM | 1.19 µM | > 100 µM | < 0.0342 µM | > 100 µM | 0.0108 µM | > 100 µM | 0.0219 µM | 22.2 µM | 0.0359 µM | > 100 µM | < 0.0486 µM | 57.2 µM | < 0.0117 µM | > 100 µM | 0.149 µM | > 100 µM | < 0.0214 µM | > 49.2 µM |
| CN(NC(=O)CC(=O)NN(C)C(=S)c1ccc(Cl)cc1)C(=S)c1ccc(Cl)cc1 | 23.7 µM | > 100 µM | 19.6 µM | > 100 µM | 21.9 µM | > 100 µM | 13.6 µM | 63.7 µM | 13 µM | 46.4 µM | 15 µM | 54.5 µM | 34.7 µM | 83.8 µM | 11.2 µM | 30.2 µM | 12.1 µM | 46.2 µM | 24.6 µM | > 100 µM |
| O=P1(O)c2ccccc2CS(=O)(=O)Cc2ccccc21 |  | > 100 µM |  | > 100 µM |  | > 100 µM |  | > 100 µM |  | > 100 µM |  | > 100 µM |  | > 100 µM |  | > 100 µM |  | > 100 µM |  | > 100 µM |
| N#CSCC(=O)c1ccc(Cl)cc1 | 4.78 µM | 22.4 µM | 12.4 µM | > 100 µM | 2.54 µM | 6.15 µM | 3.11 µM | 11 µM | 2.33 µM | 5.26 µM | 6.17 µM | 19.8 µM | 4.35 µM | 30.8 µM | 6.4 µM | 21.5 µM | 4.27 µM | 32.3 µM | 4.96 µM | 21.3 µM |
| C/C(=N\Nc1cccc(Cl)n1)c1ccccn1 | 0.51 µM | > 100 µM | 0.439 µM | > 54.7 µM | 0.692 µM | > 100 µM | 0.441 µM | 12.8 µM | 0.379 µM | 13.3 µM | 1.65 µM | > 100 µM | 1.08 µM | > 43.2 µM | 1.22 µM | 4.93 µM | 1.28 µM | > 37.6 µM | 0.671 µM | 17.5 µM |
| Cc1cc2c(C(C)C)c(O)c(O)c(C=O)c2c(O)c1-c1c(C)cc2c(C(C)C)c(O)c(O)c(C=O)c2c1O (tested in a mixture with another compound) | 1.18 µM | 3.49 µM | 1.45 µM | 9.99 µM | 1.12 µM | 3.07 µM | 0.825 µM | 2.56 µM | 1.03 µM | 2.69 µM | 1.64 µM | 3.64 µM | 1.78 µM | 9.33 µM | 1.87 µM | 4.23 µM | 0.464 µM | 2.03 µM | 0.819 µM | 3.29 µM |
